The record followed here is patent US7439366B2, “Phenacylamine derivatives, process for their production and pesticides containing them” (Ishihara Sangyo Kaisha Ltd., priority 2000, dated 2008).

The subject of the experiment is southern root-knot nematode (Meloidgyne incognita). Kind of experiment: Test on southern root-knot nematode (soil treatment, tomato seedling, root knot index). Format: in vivo. The arrangement: key: 0: No knot was formed; 1: Knots were formed to a slight degree; 2: Knots were formed to a moderate degree; 3: Knots were formed to a heavy degree; 4: Knots were formed to the heaviest degree. The following applies: 7 ml of 1600 ppm chemical solution mixed into 300 ml contaminated soil; tomato seedling in 2-leaf stage; three to four weeks after transplantation. The procedure: TEST EXAMPLE 1 Test on Southern Root-knot Nematode (Meloidgyne incognita) To 300 ml of the soil contaminated by southern root-knot nematode, 7 ml of a chemical solution having the concentration of the compound of the present invention adjusted to be 1600 ppm, was poured, followed by mixing so that the compound was uniformly dispersed. The treated soil was put into a pot (diameter: 9 cm, height: 8 cm), and then a tomato seedling in 2-leaf stage was transplanted and placed in a greenhouse. After three to four weeks from the transplantation of the tomato, the root knot index was determined based on the following standards. [table]

For `CC(C)(NC(=O)c1cccnc1Cl)C(=O)c1ccccc1` [2-2], the root knot index is 1.

For `CC(C)(NC(=O)c1ccccc1F)C(=O)c1ccc(OCC(F)(F)C(F)(F)F)cc1` [1-179], the root knot index was 1.

As for `CC(C)(NC(=O)c1ccccc1F)C(=O)c1ccc(Cl)cc1` [1-50], the root knot index was 1.

As to `CC(C)(NC(=O)c1ccccc1C(F)(F)F)C(=O)c1ccc(Cl)cc1` [1-70], the root knot index worked out at 1.

With `CC(C)(NC(=O)c1ccc(C(F)(F)F)cc1)C(=O)c1ccccc1` [1-28], the root knot index was 1.

With `CC(C)(NC(=O)c1ccccc1C(F)(F)F)C(=O)c1ccccc1` [1-24], the root knot index is on record as 1.

`CCc1ccc(C(=O)C(C)(C)NC(=O)c2cc(Cl)cc(Cl)c2)cc1` [Compound No. 1-84, 3,5-dichloro-N-[(4′-ethyl-1,1-dimethyl)phenacyl]benzamide]: the root knot index turned out to be 1.

In turn, `COc1ccc(C(=O)C(C)(C)NC(=O)c2ccccc2Cl)cc1` [1-93] yielded a root knot index of 1.

`Cc1ccccc1C(=O)NC(C)(C)C(=O)c1ccccc1` [1-18] returned a root knot index of 1.

Compound `CC(C)(NC(=O)c1ccccc1Cl)C(=O)c1ccc(Cl)cc1` [Compound No. 1-54, 2-chloro-N-[(4′-chloro-1,1-dimethyl)phenacyl]benzamide] returned a root knot index of 1.

Turning to `CC(C)(NC(=O)c1c(F)cccc1F)C(=O)c1cccc(Cl)c1` [1-135], the root knot index is 1.

Regarding `Cc1ccc(C(=O)NC(C)(C)C(=O)c2ccccc2)cc1` [1-19], the root knot index is 1.

`CC(C)(NC(=O)c1c(F)cccc1F)C(=O)c1cccc(F)c1` [1-126]: the root knot index was found to be 1.

For `CC(C)(NC(=O)c1c(F)cccc1F)C(=O)c1ccc(F)cc1` [1-128], the root knot index is recorded as 1.

`CC(C)(NC(=O)c1c(F)cccc1F)C(=O)c1ccccc1Cl` [1-134] showed a root knot index of 1.

Consider `CC(C)(NC(=O)c1cccc(F)c1F)C(=O)c1ccc(Br)cc1` [1-159], for which the root knot index was determined as 1.

`CC(C)(NC(=O)c1c(F)cccc1F)C(=O)c1ccc(C(F)(F)F)cc1` [1-166] showed a root knot index of 1.

With `CC(C)(NC(=O)c1c(F)cccc1F)C(=O)c1ccc(Br)cc1` [1-157], the root knot index is given as 1.

The compound `CC(C)(NC(=O)c1c(F)cccc1F)C(=O)c1ccc(S(C)(=O)=O)cc1` [1-213] had a root knot index of 1.

`CSc1ccc(C(=O)C(C)(C)NC(=O)c2c(F)cccc2F)cc1` [1-212] returned a root knot index of 1.

In turn, `CC(C)(NC(=O)c1ccccc1F)C(=O)c1ccc(OC(F)F)cc1` [1-171] yielded a root knot index of 1.

In turn, `CC(C)(NC(=O)c1c(F)cccc1F)C(=O)c1ccc(Oc2ccc(C(F)(F)F)cn2)cc1` [1-211] gave a root knot index of 1.

`CC(C)(NC(=O)c1ccc(F)cc1F)C(=O)c1ccc(Cl)cc1` [1-140] showed a root knot index of 1.

Consider `CC(C)(NC(=O)c1c(F)cccc1F)C(=O)c1ccc(OC(F)F)cc1` [1-172], for which the root knot index was 1.

As for `CC(C)(NC(=O)c1ccccc1Br)C(=O)c1ccccc1` [1-17], the root knot index was 1.

Take `CC(C)(NC(=O)c1ccccc1Br)C(=O)c1ccc(Cl)cc1` [1-64]: the root knot index came out at 1.

Compound `CC(C)(NC(=O)c1ccccc1F)C(=O)c1ccc(I)cc1` [1-160] registered a root knot index of 1.

Compound `CCc1ccc(C(=O)C(C)(C)NC(=O)c2ccccc2Cl)cc1` [1-83] showed a root knot index of 1.

For the compound `CC(C)(NC(=O)c1ccccc1C(F)(F)F)C(=O)c1ccc(I)cc1` [1-161], the root knot index was found to be 1.

With `CCOc1ccc(C(=O)C(C)(C)NC(=O)c2c(F)cccc2F)cc1` [1-169], the root knot index was 1.

Consider `Cc1ccccc1C(=O)NC(C)(C)C(=O)c1ccc(Cl)cc1` [1-65], for which the root knot index is 1.

As to `CC(C)(NC(=O)c1ccccc1F)C(=O)c1ccccc1` [1-1], the root knot index came to 1.

In turn, `CC(C)(NC(=O)c1ccccc1Cl)C(=O)c1ccc(OC(F)F)cc1` [1-95] had a root knot index of 1.

Compound `Cc1ccc(C(=O)C(C)(C)NC(=O)c2c(F)cccc2F)cc1` [1-163] displayed a root knot index of 1.

`CC(C)(NC(=O)c1ccccc1Cl)C(=O)c1ccc(F)c(F)c1` [1-131] had a root knot index of 1.

The compound `CC(C)(NC(=O)c1ccccc1C(F)(F)F)C(=O)c1ccc(OC(F)(F)C(F)F)cc1` [1-178] came in with a root knot index of 1.

`CC(C)(NC(=O)c1c(F)cccc1F)C(=O)c1ccc(Cl)c(Cl)c1` [1-147] registered a root knot index of 1.

In the case of `CCC(C)(NC(=O)c1c(F)cccc1F)C(=O)c1ccc(Cl)cc1` (racemic) [1-151], the root knot index is on record as 1.

In the case of `CC(C)(NC(=O)c1cccc(F)c1F)C(=O)c1ccc(Cl)cc1` [1-139], the root knot index is on record as 1.

For `CC(C)(NC(=O)c1ccccc1F)C(=O)c1ccc(OCC(F)(F)F)cc1` [1-173], the root knot index is recorded as 1.

Regarding `CC(C)(NC(=O)c1ccccc1)C(=O)c1ccc(Cl)cc1` [1-49], the root knot index was 1.

Turning to `CC(C)(NC(=O)c1c(F)cccc1F)C(=O)c1ccc(I)cc1` [1-162], the root knot index is reported as 1.

In turn, `CC(C)(NC(=O)c1cc(F)ccc1F)C(=O)c1ccc(Cl)cc1` [1-141] displayed a root knot index of 1.

In turn, `CC(C)(NC(=O)c1ccc(F)cc1F)C(=O)c1ccccc1` [1-125] showed a root knot index of 1.

As to `CCC(C)(NC(=O)c1ccccc1F)C(=O)c1ccc(Cl)cc1` (racemic) [1-51], the root knot index turned out to be 1.

On to `CC(C)(NC(=O)c1ccccc1C(F)(F)F)C(=O)c1ccc(F)c(F)c1` [1-132], for which the root knot index was 1.

Compound `CC(C)(NC(=O)c1ccccc1F)C(=O)c1ccc(Cl)c(Cl)c1` [1-77] gave a root knot index of 1.

Consider `CC(C)(NC(=O)c1ccccc1F)C(=O)c1ccc(C(F)(F)F)cc1` [1-167], for which the root knot index amounted to 1.

`CSc1ccccc1C(=O)NC(C)(C)C(=O)c1ccccc1` [1-31] came in with a root knot index of 1.

In the case of `CCc1ccc(C(=O)C(C)(C)NC(=O)c2c(F)cccc2F)cc1` [1-164], the root knot index is recorded as 1.

In turn, `COc1ccc(C(=O)C(C)(C)NC(=O)c2c(F)cccc2F)cc1` [1-168] had a root knot index of 1.

`CC(C)(NC(=O)c1ccccc1F)C(=O)c1ccc(Br)cc1` [1-158] registered a root knot index of 1.

`CC(C)(NC(=O)c1cccc(F)c1F)C(=O)c1ccc(F)cc1` [1-127] came in with a root knot index of 1.

As for `CC(C)(NC(=O)c1c(F)cccc1Cl)C(=O)c1ccc(Cl)cc1` [1-142], the root knot index is 1.

The compound `CC(C)(NC(=O)c1c(F)cccc1F)C(=O)c1ccccc1` [1-4] returned a root knot index of 1.

In turn, `CC(C)(NC(=O)c1ccccc1[N+](=O)[O-])C(=O)c1ccccc1` [1-38] gave a root knot index of 1.

`CC(C)(NC(=O)c1c(F)cccc1F)C(=O)c1ccc(OC(F)(F)C(F)F)cc1` [1-177] showed a root knot index of 1.

Take `CC(C)(NC(=O)c1c(F)cccc1F)C(=O)c1ccc(OCC(F)(F)F)cc1` [1-174]: the root knot index amounted to 1.

`CC(C)(NC(=O)c1c(F)cccc1F)C(=O)c1ccc(OCC(F)(F)C(F)(F)F)cc1` [1-180] yielded a root knot index of 1.

The compound `CC(C)(NC(=O)c1ccccc1Cl)C(=O)c1ccc(OC(F)(F)C(F)F)cc1` [1-176] came in with a root knot index of 1.

Take `CC(C)(NC(=O)c1ccccc1[N+](=O)[O-])C(=O)c1ccc(Cl)cc1` [1-136]: the root knot index was found to be 1.

For the compound `CC(C)(NC(=O)c1c(F)cccc1F)C(=O)c1ccc(F)c(F)c1` [1-133], the root knot index was found to be 1.

In turn, `CC(C)(NC(=O)c1ccccc1F)C(=O)c1ccc(F)c(F)c1` [1-130] registered a root knot index of 1.

`CC(C)(NC(=O)c1ccccc1F)C(=O)c1ccc(OC(F)(F)C(F)F)cc1` [1-175] displayed a root knot index of 1.

`CC(C)(NC(=O)c1ccc(F)cc1Cl)C(=O)c1ccc(Cl)cc1` [1-138] registered a root knot index of 1.

As for `CC(C)(NC(=O)c1ccccc1Cl)C(=O)c1ccccc1` [Compound No. 1-5], the root knot index worked out at 1.

In the case of `CN(C(=O)c1ccccc1C(F)(F)F)C(C)(C)C(=O)c1ccccc1` [Compound No. 1-27, N-methyl-N-[(1,1-dimethyl)phenacyl]-2-trifluoromethylbenzamide], the root knot index is reported as 1.

For the compound `CC(C)(NC(=O)c1ccccc1Cl)C(=O)c1ccc(Br)cc1` [1-155], the root knot index stood at 1.

`CC(C)(NC(=O)c1c(F)cccc1F)C(=O)c1ccc(Cl)cc1Cl` [1-143] displayed a root knot index of 1.
